Measurements: ChEMBL document CHEMBL5126603, “Discovery of Clinical Candidate CHF-6366: A Novel Super-soft Dual Pharmacology Muscarinic Antagonist and β2 Agonist (MABA) for the Inhaled Treatment of Respiratory Diseases” (J Med Chem, 2022)

Assays:
[1] = Metabolic stability in rat lung S9 fraction assessed as half life at 1 uM measured after 0 to 60 mins in presence of NADPH by LC-MS/MS analysis; type: ADME, subcellular; conditions: time 0-60 min
[2] = Metabolic stability in Dunkin-Hartley guinea pig hepatocytes assessed as clearance at 1 uM measured per 10^6 cells and incubated upto 90 mins by LC-MS/MS analysis; type: ADME, cell-based, Cavia porcellus, Hepatocyte; conditions: read-out: CLH
[3] = Metabolic stability in rat hepatocytes assessed as clearance at 1 uM measured per 10^6 cells and incubated upto 90 mins by LC-MS/MS analysis; type: ADME, cell-based, Hepatocyte; conditions: read-out: CLH
[4] = Metabolic stability in human liver microsomes assessed as clearance at 1 uM measured per mg protein incubated upto 60 mins in presence of NADPH by LC-MS/MS analysis; type: ADME, Microsome; conditions: read-out: CLH
[5] = Metabolic stability in rat liver microsomes assessed as clearance at 1 uM measured per mg protein incubated upto 60 mins in presence of NADPH by LC-MS/MS analysis; type: ADME, Microsome; conditions: read-out: CLH
[6] = Metabolic stability in Dunkin-Hartley guinea pig lung S9 fraction assessed as half life at 1 uM measured after 0 to 60 mins in presence of NADPH by LC-MS/MS analysis; type: ADME, subcellular, Cavia porcellus; conditions: time 0-60 min
[7] = Efflux ratio of apparent permeability from basolateral to apical side over apical to basolateral side in human Caco-2 cells at 10 uM and measured after 2 hrs by LC-MS/MS analysis; type: ADME, cell-based
[8] = Half life in Dunkin-Hartley guinea pig lung at 500 nmol/Kg, IT(Intratracheal) measured after 72 hrs by LC/MS-MS analysis; type: ADME, tissue-based, Cavia porcellus; conditions: inhaled or intranasal
[9] = Cmax in Dunkin-Hartley guinea pig plasma at 500 nmol/Kg, IT(Intratracheal) measured after 72 hrs by LC/MS-MS analysis; type: ADME, cell-free, Cavia porcellus; parameters: dose 500 nmol/kg, time 72 hrs, route it(Intratracheal); conditions: inhaled or intranasal
[10] = AUCinfinity in Dunkin-Hartley guinea pig plasma at 500 nmol/Kg, IT(Intratracheal) measured after 72 hrs by LC/MS-MS analysis; type: ADME, cell-free, Cavia porcellus; parameters: dose 500 nmol/kg, time 72 hrs, route it(Intratracheal); conditions: inhaled or intranasal
[11] = Mutagenicity in Salmonella typhimurium assessed as induction of reverse mutation by Ames test; type: toxicity; conditions: salmonella enterica subsp. enterica serovar typhimurium
Trachea [12] = assay: In vivo bifunctional antagonist activity at muscarinic M3 receptor /agonist activity at beta-2 adrenoceptor in Dunkin-Hartley guinea pig trachea assessed as inhibition of carbachol induced contraction; type: functional, tissue-based; conditions: Cavia porcellus
Trachea [13] = assay: (§1) Bifunctional antagonist activity at muscarinic M3 receptor /agonist activity at beta-2 adrenoceptor in Dunkin-Hartley guinea pig trachea assessed as inhibition of acetylcholine-induced bronchoconstriction at 0.3 nmol/Kg, IT(Intratracheal) measured after 30 mins by Konzett-Roessler methodology relative to control; type: functional; conditions: Cavia porcellus, 0.5 h
[14] = Toxicity in INH dosed dog assessed as maximum tolerated dose measured after 7 days; type: organism-based, Canis lupus familiaris; conditions: in vivo, inhaled or intranasal, time 7 day
[15] = target: D(2) dopamine receptor (Homo sapiens) (UniProt P14416); assay: Inhibition of dopamine D2 receptor (unknown origin) at 10 uM relative to control
[16] = target: 5-hydroxytryptamine receptor 1B (Homo sapiens) (UniProt P28222); assay: Inhibition of 5-HT1B receptor (unknown origin) at 10 uM relative to control
[17] = target: 5-hydroxytryptamine receptor 2A (Homo sapiens) (UniProt P28223); assay: Inhibition of 5-HT2a (unknown origin) at 10 uM relative to control
[18] = target: Sodium-dependent serotonin transporter (Homo sapiens) (UniProt P31645); assay: Inhibition of serotonin transporter (unknown origin) at 10 uM relative to control
[19] = In vivo antagonist activity at muscarinic M3 receptor in Dunkin-Hartley guinea pig trachea assessed as inhibition of acetylcholine induced bronchoconstriction at 0.3 nmol/Kg, IT(Intratracheal) measured after 24 hr in presence of ICI-118551 by Konzett-Roessler methodology relative to control; type: functional; conditions: Cavia porcellus
[20] = In vivo agonist activity at beta-2 adrenoceptor in Dunkin-Hartley guinea pig trachea assessed as inhibition of histamine induced bronchoconstriction at 0.3 nmol/Kg, IT(Intratracheal) measured after 1 hr by Konzett-Roessler methodology relative to control; type: functional; conditions: Cavia porcellus
Trachea [21] = assay: as §1, with “acetylcholine induced” for “acetylcholine-induced”, “1 hr” for “30 mins”; type: functional; conditions: Cavia porcellus

Sequence of 5-hydroxytryptamine receptor 1B (Homo sapiens) (P28222 whole entry): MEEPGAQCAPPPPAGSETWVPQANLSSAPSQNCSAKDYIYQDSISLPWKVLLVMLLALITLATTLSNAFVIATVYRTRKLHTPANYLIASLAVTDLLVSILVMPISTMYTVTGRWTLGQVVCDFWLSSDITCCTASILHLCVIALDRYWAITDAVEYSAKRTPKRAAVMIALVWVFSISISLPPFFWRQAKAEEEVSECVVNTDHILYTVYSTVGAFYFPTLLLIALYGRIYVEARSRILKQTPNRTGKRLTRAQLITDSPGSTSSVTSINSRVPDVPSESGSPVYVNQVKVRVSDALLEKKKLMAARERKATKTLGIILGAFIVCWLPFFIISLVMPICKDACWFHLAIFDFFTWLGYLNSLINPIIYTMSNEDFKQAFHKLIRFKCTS
Sequence of 5-hydroxytryptamine receptor 2A (Homo sapiens) (P28223 whole entry): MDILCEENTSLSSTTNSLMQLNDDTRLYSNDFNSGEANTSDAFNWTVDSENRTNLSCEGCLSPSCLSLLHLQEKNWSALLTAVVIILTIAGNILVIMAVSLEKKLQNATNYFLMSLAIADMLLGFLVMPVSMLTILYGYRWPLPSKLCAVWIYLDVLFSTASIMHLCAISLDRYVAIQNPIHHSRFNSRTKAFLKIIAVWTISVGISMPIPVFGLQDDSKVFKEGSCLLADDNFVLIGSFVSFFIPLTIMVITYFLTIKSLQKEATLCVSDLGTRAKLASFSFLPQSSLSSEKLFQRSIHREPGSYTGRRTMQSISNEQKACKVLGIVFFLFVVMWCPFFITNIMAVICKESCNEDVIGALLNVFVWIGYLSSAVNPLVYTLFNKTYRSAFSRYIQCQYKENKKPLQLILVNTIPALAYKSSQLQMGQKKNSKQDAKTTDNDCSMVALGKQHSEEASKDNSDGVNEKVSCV
Sequence of Sodium-dependent serotonin transporter (Homo sapiens) (P31645 whole entry, looked up): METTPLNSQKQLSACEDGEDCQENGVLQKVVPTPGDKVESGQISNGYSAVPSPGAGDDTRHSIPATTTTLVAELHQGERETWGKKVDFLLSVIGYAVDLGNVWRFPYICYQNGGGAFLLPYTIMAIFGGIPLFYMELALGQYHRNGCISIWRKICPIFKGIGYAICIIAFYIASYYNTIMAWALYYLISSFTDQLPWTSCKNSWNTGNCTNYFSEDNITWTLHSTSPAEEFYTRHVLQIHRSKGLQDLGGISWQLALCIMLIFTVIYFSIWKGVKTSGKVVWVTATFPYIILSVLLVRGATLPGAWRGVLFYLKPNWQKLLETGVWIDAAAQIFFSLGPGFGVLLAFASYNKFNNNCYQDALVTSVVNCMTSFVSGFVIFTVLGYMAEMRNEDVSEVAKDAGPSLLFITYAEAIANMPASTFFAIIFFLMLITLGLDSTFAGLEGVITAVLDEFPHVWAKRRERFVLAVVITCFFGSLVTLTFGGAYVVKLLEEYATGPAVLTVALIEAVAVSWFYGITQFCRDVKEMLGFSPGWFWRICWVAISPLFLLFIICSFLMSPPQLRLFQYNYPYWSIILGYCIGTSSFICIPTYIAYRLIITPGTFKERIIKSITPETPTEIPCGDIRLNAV
Sequence of D(2) dopamine receptor (Homo sapiens) (P14416 whole entry): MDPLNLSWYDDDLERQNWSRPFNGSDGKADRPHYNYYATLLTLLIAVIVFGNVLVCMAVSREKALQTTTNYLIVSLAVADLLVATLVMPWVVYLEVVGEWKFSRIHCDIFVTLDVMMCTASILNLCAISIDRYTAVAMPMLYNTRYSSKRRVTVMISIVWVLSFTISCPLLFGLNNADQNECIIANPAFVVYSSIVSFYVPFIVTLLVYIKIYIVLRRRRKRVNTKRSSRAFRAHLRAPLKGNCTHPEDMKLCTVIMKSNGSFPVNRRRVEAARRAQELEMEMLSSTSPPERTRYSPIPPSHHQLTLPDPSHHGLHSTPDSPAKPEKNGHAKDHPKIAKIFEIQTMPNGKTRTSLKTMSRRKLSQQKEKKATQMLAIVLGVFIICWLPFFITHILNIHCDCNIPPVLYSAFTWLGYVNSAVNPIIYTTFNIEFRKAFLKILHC

Cn1nc(C(=O)OCCCCNC[C@H](O)c2ccc(O)c3[nH]c(=O)ccc23)cc1COc1cccc([C@@H](NC(=O)O[C@H]2CN3CCC2CC3)c2ccccc2)c1
half-life at 1 µM [1]: 0.5 h
hepatocyte CLint at 1 µM [2]: 37 µL/min/1e6 cells
hepatocyte CLint at 1 µM [3]: 32 µL/min/1e6 cells
microsomal CLint at 1 µM [4]: 14 µL/min/mg
microsomal CLint at 1 µM [5]: 37 µL/min/mg
half-life at 1 µM [6]: > 2 h
efflux ratio at 2 h, 10 µM [7]: 0.7
half-life [8]: 49.2 h
Cmax [9]: 126 ng/g
AUC(0-inf) [10]: 661 ng·h/mL
Activity [11]: Non-Toxic
IC50 (Trachea [12]): 0.316 nM
inhibition in vivo at 0.0003 µmol/kg (Trachea [13]): 65.9%
MTD at 168 h [14]: 0.124 mg/kg/day
inhibition [15]: > 65%
inhibition [16]: > 65%
inhibition [17]: > 65%
inhibition [18]: > 65%
inhibition in vivo at 0.0003 µmol/kg [19]: 30.1%
inhibition in vivo at 0.0003 µmol/kg [20]: 31.9%
inhibition in vivo at 0.0003 µmol/kg (Trachea [21]): 58.4%
